Where a name gives a salt, the structure may show the parent alone.
Columns and labels:
male NMRI mice = experiment: Hepatotoxicity induced by acetaminophene (paracetamol); type: in vivo, mouse; settings: dose of 50 mg/kg
Description: It was examined whether the liver damage induced with paracetamol can be prevented by the novel compounds of the formula I. The symptom of liver damage was characterized by an increase of the GOT and […] enzyme levels induced with paracetamol. The experiments were carried out on male NMRI mice of 30–40 g body weight. The animals were pretreated with the compounds of the formula I, perorally, for 7 days. On day 8, the mice were subjected to starvation for 12 hours, then a 500 mg/kg p.o. dose of paracetamol and a given dose of a compound of the formula I were administered. After 16 hours, the animals were bled to death and the activity of the GOT and GPT enzymes was measured in the serum. The results were analyzed by the non-parametric test of Mann and Whitney. As to the results, the average and the standard deviation are given wherein p<0.05 was considered as significant.

[1] = target: T1, poly(adenosine diphosphate ribose)polymerase (PARP) (Rattus norvegicus, UniProt P27008); experiment: Determination of PARP inhibition, in vitro, on isolated enzyme; type: biochemical; settings: PARP isolated from rat liver; four parallel measurements; read-out: PARP I0.5 (converted)
T1 construct: was isolated from rat liver according to the article of Shah, G. M; from tissue; host or cells: rat liver
T1 sequence (P27008 whole entry): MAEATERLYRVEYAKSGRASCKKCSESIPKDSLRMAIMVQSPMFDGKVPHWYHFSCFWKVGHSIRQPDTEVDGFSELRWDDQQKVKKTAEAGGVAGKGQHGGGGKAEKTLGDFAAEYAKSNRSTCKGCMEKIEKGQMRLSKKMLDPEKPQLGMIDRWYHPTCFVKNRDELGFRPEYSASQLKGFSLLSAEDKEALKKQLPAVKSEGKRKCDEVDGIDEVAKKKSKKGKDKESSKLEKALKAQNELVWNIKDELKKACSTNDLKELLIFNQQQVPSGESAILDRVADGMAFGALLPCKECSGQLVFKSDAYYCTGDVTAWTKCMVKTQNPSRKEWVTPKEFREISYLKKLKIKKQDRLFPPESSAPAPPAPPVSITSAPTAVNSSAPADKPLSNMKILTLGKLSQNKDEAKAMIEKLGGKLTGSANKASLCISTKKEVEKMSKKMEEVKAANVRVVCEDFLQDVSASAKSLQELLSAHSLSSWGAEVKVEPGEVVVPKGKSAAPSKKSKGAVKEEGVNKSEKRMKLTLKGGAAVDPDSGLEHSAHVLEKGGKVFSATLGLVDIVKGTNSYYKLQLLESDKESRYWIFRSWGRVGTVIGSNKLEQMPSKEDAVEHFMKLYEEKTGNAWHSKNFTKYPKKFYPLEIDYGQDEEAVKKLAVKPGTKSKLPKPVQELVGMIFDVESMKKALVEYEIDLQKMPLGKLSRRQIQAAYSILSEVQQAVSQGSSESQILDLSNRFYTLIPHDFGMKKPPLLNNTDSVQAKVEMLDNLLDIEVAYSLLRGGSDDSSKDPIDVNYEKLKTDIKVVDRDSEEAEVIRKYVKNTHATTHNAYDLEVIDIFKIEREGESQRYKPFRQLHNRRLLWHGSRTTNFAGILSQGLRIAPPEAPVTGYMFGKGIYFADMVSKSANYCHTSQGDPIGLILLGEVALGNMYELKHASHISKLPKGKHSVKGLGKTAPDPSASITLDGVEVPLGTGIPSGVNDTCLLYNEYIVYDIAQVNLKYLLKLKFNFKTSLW
Description: The poly(adenosine diphosphate ribose)polymerase was isolated from rat liver according to the article of Shah, G. M. [Anal. Biochem., 227, 1–13 (1995)]. The PARP activity was determined in 130 μl of reaction mixture consisting of 100 mM of tris-HCl buffer, pH 8.0, 10 mM of MgCl2, 10% glycerol, 1.5 mM of DTT, 100 μg of (32P) or (3H) NAD+, 10 μg of activated DNA, 10 μg of histone. [Tris-HCl is tris(hydroxymethyl)aminomethane hydrochloride.] After 10 minutes of incubation time, the reaction was stopped with 8% perchloric acid, and the protein was separated through centrifugation (10 minutes, 10.000×g). The precipitate was washed with 8% perchloric acid three times, and the radioactivity bound to the protein was measured with a scintillation counter.

conscious rabbits = experiment: Hyperinsulinaemic euglycaemic clamp studies (insulin sensitivity); type: in vivo, rabbit
Description: It was investigated whether treatment with the compounds of the invention effected insulin sensitivity of normal and hypercholesterolaemic conscious rabbits. Adult male white New Zealand rabbits weighing 3–3.5 kg, housed in an animal room (12-hour light/dark periods a day, temperature of 22–25° C., humidity of 50–70%), fed commercial laboratory chow and tap water ad libitum were used throughout. The experimental period commenced after a two-week adaptation period. The rabbits were randomized into two main groups. Half of the animals were continued to feed normal rabbit chow, whereas the second group animals were fed chow enriched with 1.5% cholesterol over a period of eight week. Each main group was divided into four treatment groups: • untreated group, • group treated with a compound of the invention, 10 mg/kg i.v. dose twice a day over 4 days, • group treated with 7-nitroindazole as NOS inhibitor: administration of 5 mg/kg of 7-nitroindazole over 5 min. preceded insulin administration with a 5-min inter-infusion interval, • group treated with both 7-nitroindazole and the compound of the invention as described.
The animals were anaesthetized and polyethylene catheters were inserted into two major branches of the right jugular vein and the left carotid artery. The catheters were exteriorized through the back of the neck and filled with physiological saline containing heparin. […]

C57BI mice = experiment: Experimental model of Parkinson's disease (MPTP); type: in vivo, mouse; settings: four times 20 mg/kg MPTP intraperitoneally
Description: Parkinson's disease (PD) is a common disabling idiopathic neurodegenerative disorder characterized by tremor, bradykinesia, rigidity and balance difficulties. These motor abnormalities are caused by the depletion of brain dopamine that results from the loss of dopaminerg neurons in the substantia nigra pars compacta. The analysis of the action of 1-methyl-4-phenyl-1,2,3,6-tetrahydropyridine (MPTP) having selective neurotoxicity shed light to the possible patomechanism of the Parkinson's disease. MPTP induces parkinsonian motor signs in both human and animals [Dexter, A. et al., Ann. Neurol., 35, 38–44 (1994)]. MPTP treatment results in a loss of dopaminergic neurons in the substantia nigra pars compacta, as well. Lewy body-like eosinophilic inclusions appear in the damaged neurons and the activity of mitochondrial complex I is also diminished in these cells. These alterations are characteristic for oxidative stress [Shapira, A., Adv. Neurol., 69, 161–165 (1996)]. The biologically active metabolite of MPTP is MPP [1-methyl-4-phenylpyridinium]. MPP inhibits directly complex I in mitochondria leading to increased generation of superoxide anion. […] After centrifugation (14000×g, 10 min, 4° C.), 20 μl of supernatant were injected onto a reverse phase catecholamine column (ESA, Bedford) and dopamine content was evaluated. […]

male SPRD rats = experiment: Heart ischemic failure and reperfusion arrhythmia (LAD occlusion/reperfusion); type: in vivo, rat; settings: 5 min LAD occlusion, 10 min reperfusion
Description: Experiments were carried out in male SPRD rats (acceptable body weight range: 300–350 g). The animals were anesthetized by the administration of pentobarbital [5-ethyl-5-(1-methylbutyl)-2,4,6-(1H,3H,5H)-pyrimidintrione] (60 mg/kg intraperitoneally), and remained breathing spontaneously. The animals were ventilated with a respirator (manufactured by Kutesz, Hungarian Academy of Sciences) by using a trachea cannule inserted after tracheotomy. The standard lead of the ECG II was monitored. The right femoral artery was catheterized and connected to a pressure transducer (BPR-01, Experimetria, Hungary) and a preamplifier. The pulsotachometer (HG-M, Experimetria, Hungary) was started by the pulsating signal of arterial blood pressure. The external jugular vein was cannulated for drug administration. After thoracotomy, a silk (braided, coated 4-0) was placed under the left anterior coronary (LAD) artery. After a few minutes' stabilization period, a 5 min occlusion of LAD artery was applied followed by a 10 min reperfusion period. ECG was recorded in the normal state at the start and in the above periods. From the data of ECG, the span of time of ventricular tachycardia and fibrillation was determined in sec. In addition, the survival ratios in the treated animal groups were recorded.

| Structure (SMILES) | IC50 [1] [µM] | other results |
| --- | --- | --- |
| O=c1onc(C=Cc2ccccc2)n1CC(O)CN1CCCC1 (centres unmarked) [Example 3, 3-Styryl-4-(3-pyrrolidino-2-hydroxypropyl)-Δ^2-1,2,4-oxadiazolin-5-one-hydrochloride] | 25.4 | – |
| CC(C)(C)NCC(O)Cn1c(C=Cc2ccccc2)noc1=O (centres unmarked) [Example 6, 3-Styryl-4-[3-(tert.-butylamino)-2-hydroxypropyl]-Δ^2-1,2,4-oxadiazolin-5-one hydrochloride] | 53.6 | – |
| O=[N+]([O-])c1cccc2cn[nH]c12 [7-nitroindazole] | – | effect on the insulin resistance ameliorating effect of the compounds of the invention (conscious rabbits; experimental hypercholesterolaemia): blocked the insulin resistance ameliorating effect; insulin resistance produced by the substance itself (conscious rabbits; normal animals, 5 mg/kg 7-nitroindazole): produced insulin resistance |
| Cc1cccc(C)c1NCC(O)Cn1c(C=Cc2ccccc2)noc1=O (centres unmarked) [Example 9, 3-Styryl-4-[3-(2,6-dimethylanilino)-2-hydroxypropyl]-Δ^2-1,2,4-oxadiazolin-5-one hydrochloride] | 19.2 | – |
| O=c1onc(C=Cc2ccccc2)n1CC(O)CN1CCCCCC1 (centres unmarked) [Example 4, 3-Styryl-4-(3-hexamethyleneimino-2-hydroxypropyl)-Δ^2-1,2,4-oxadiazolin-5-one hydrochloride] | 40.8 | – |
| CN1CC=C(c2ccccc2)CC1 [MPTP, 1-methyl-4-phenyl-1,2,3,6-tetrahydropyridine] | – | decrease in striatal dopamine content (C57BI mice): 80% |
| O=c1onc(C=Cc2ccccc2)n1CC(O)CN1CCOCC1 (centres unmarked) [Example 5, 3-Styryl-4-(3-morpholino-2-hydroxypropyl)-Δ^2-1,2,4-oxadiazolin-5-one hydrochloride] | 39.2 | – |
| O=c1onc(C=Cc2ccccc2)n1CC(O)CN1CCCCC1 (centres unmarked) [Example 2, 3-Styryl-4-(3-piperidino-2-hydroxipropyl)-Δ^2-1,2,4-oxadiazolin-5-one hydrochloride] | 27.3 | longer survival relative to the control group after reperfusion (male SPRD rats): 50% |
| O=c1onc(C=Cc2ccccc2)n1CC(O)CN1CCc2ccccc2C1 (centres unmarked) [Example 8, 3-Styryl-4-[3-(1,2,3,4-tetrahydro-2-isoquinolyl)-2-hydroxypropyl]-Δ^2-1,2,4-oxadiazolin-5-one hydrochloride] | 31.8 | – |

Further lines, with some results ahead:

| IC50 [1] [µM] | Structure (SMILES) | other results |
| --- | --- | --- |
| 59.3 | ON=C(C=Cc1ccccc1)NCC(O)CN1CCCCC1 (centres unmarked) [Example 12, N-(3-Piperidino-2-hydroxypropyl)cinnamic acid amidoxime] | hepatoprotective effect (male NMRI mice): very favourable hepatoprotective effect |
| 63.1 | C(=Cc1ccccc1)C1=NOC(CN2CCCCC2)CN1 (centres unmarked) [Example 16, 3-Styryl-6-(piperidinomethyl)-4H-5,6-dihydro-1,2,4-oxadiazine] | – |
| 65.5 | ON=C(C=Cc1ccccc1)NCC(O)CN1CCOCC1 (centres unmarked) [Example 13, N-(3-Morpholino-2-hydroxypropyl)cinnamic acid amidoxime dihydrogen maleate] | – |
| 28.3 | CN1CCN(CC(O)CNC(C=Cc2ccccc2)=NO)CC1 (centres unmarked) [Example 14, N-[3-(1-Methyl-4-piperazinyl)-2-hydroxypropyl]cinnamic acid amidoxime trihydrogen maleate] | – |
| 71.9 | COc1ccc(C=Cc2noc(=O)n2CC(O)CN2CCCCC2)cc1OC (centres unmarked) [Example 10, 3-(3,4-Dimethoxystyryl)-4-(3-piperidino-2-hydroxypropyl)-Δ^2-1,2,4-oxadiazolin-5-one hydrochloride] | – |

Reference: patent US7151175B2, “Propenecarboxylic acid amidoxime derivatives, a process for the preparation thereof, and pharmaceutical compositions containing the same” (N-Gene Research Laboratories Inc., priority 2000, dated 2006)
